Assay results: publication PMC10180076, “Novel Biologically Active N-Substituted Benzimidazole Derived Schiff Bases: Design, Synthesis, and Biological Evaluation” (Molecules, 2023)
Converted amounts (≈) assume the structure as drawn.

Assays:
[1] = system: DND-41, acute lymphoblastic leukemia; assay: Proliferation assay (MTS, 72 h), DND-41; type: cell-based, human; conditions: Homo sapiens, DND41
Text: (§1) Human cancer cells used in this manuscript, namely Capan-1, HCT-116, NCI-H460, LN-229, HL-60, K-562, and Z-138, were acquired from the American Type Culture Collection (ATCC, Manassas, VA, USA), while the DND-41 cell line was purchased from the Deutsche Sammlung von Mikroorganismen und Zellkulturen (DSMZ Leibniz-Institut, Braunschweig, Germany). Culture media were purchased from Gibco Life Technologies, Merelbeke, Belgium, and supplemented with 10% fetal bovine serum (HyClone, Cytiva, Marlborough, MA, USA). Vincristine and docetaxel, which were used as the reference inhibitors, were purchased from Selleckchem (Munich, Germany). Stock solutions were prepared in DMSO.
(§2) Adherent cell lines LN-229, HCT-116, and NCI-H460 and Capan-1 cells were seeded at a density between 500 and 1500 cells per well, in 384-well tissue culture plates (Greiner, Kremsmünster, Austria). After overnight incubation, the cells were treated with seven different concentrations of the test compounds, ranging from 100 to 0.006 µM.
(§3) Suspension cell lines HL-60, K-562, Z-138, and DND-41 were seeded at densities ranging from 2500 to 5500 cells per well in 384-well culture plates containing the test compounds at the same concentration points. The cells were incubated for 72 h with the compounds and were then analyzed using the CellTiter 96® AQueous One Solution Cell Proliferation Assay (MTS) reagent (Promega, Madison, WI, USA) according to the manufacturer’s instructions. […] The compounds were tested in two independent experiments.

[2] = system: yellow fever virus (YFV 17D); assay: microbe, parasite or virus in culture; type: cell-based; conditions: Huh-7, read-out: Antiviral Activity (EC50/μM) YFV 17D Huh-7
Zika virus (Mr776) = assay: Antiviral CPE reduction assay, Zika virus in Huh-7; type: cell-based; conditions: Huh-7 cells, 100 CCID50, MTS
[3] = system: herpes simplex virus-1 (HSV-1 KOS); assay: Antiviral CPE reduction assay, HSV-1 KOS in HEL 299; type: cell-based; conditions: Human alphaherpesvirus 1; HEL 299 cells, 100 CCID50, MTS
[4] = system: influenza B (B/Ned/537/05); assay: Antiviral CPE reduction assay, influenza B in MDCK; type: cell-based; conditions: Influenza B virus; MDCK cells, 100 CCID50, MTS
NCI-H460, lung carcinoma = assay: Proliferation assay (MTS, 72 h), NCI-H460; type: cell-based, human; conditions: Homo sapiens, NCI-H460
Text: as §1, §2, §3

[5] = system: HCT-116, colorectal carcinoma; assay: Proliferation assay (MTS, 72 h), HCT-116; type: cell-based, human; conditions: Homo sapiens, HCT-116
Text: as §1, §2, §3

[6] = system: respiratory syncytial virus A (Long); assay: Antiviral CPE reduction assay, RSV A in HEL 299; type: cell-based; conditions: human respiratory syncytial virus; HEL 299 cells, 100 CCID50, MTS
[7] = system: human coronavirus HCoV-NL63; assay: Antiviral CPE reduction assay, HCoV-NL63 in Huh-7; type: cell-based; conditions: Huh-7 cells, 100 CCID50, MTS
[8] = system: influenza A/H1N1 (A/Ned/378/05); assay: Antiviral CPE reduction assay, influenza A/H1N1 in MDCK; type: cell-based; conditions: Influenza A virus, MDCK cells, 100 CCID50, MTS
[9] = system: Z-138, non-Hodgkin lymphoma; assay: Proliferation assay (MTS, 72 h), Z-138; type: cell-based, human; conditions: Homo sapiens, Z-138
Text: as §1, §2, §3

[10] = system: HL-60, acute myeloid leukemia; assay: Proliferation assay (MTS, 72 h), HL-60; type: cell-based, human; conditions: Homo sapiens, HL-60
Text: as §1, §2, §3

[11] = system: human coronavirus HCoV-OC43; assay: microbe, parasite or virus in culture; type: cell-based; conditions: Betacoronavirus 1, OC43; HEL 299 cells, 100 CCID50, MTS; read-out: Antiviral Activity (EC50/μM) HCoV OC43 HEL 299
[12] = system: influenza A/H3N2 (A/HK/7/87); assay: Antiviral CPE reduction assay, influenza A/H3N2 in MDCK; type: cell-based; conditions: Influenza A virus, MDCK cells, 100 CCID50, MTS
in vitro [13] = conditions: human
in vitro [14] = conditions: dog
LN-229, glioblastoma = assay: Proliferation assay (MTS, 72 h), LN-229; type: cell-based, human; conditions: Homo sapiens, LN-229
Text: as §1, §2, §3

[15] = system: K-562, chronic myeloid leukemia; assay: Proliferation assay (MTS, 72 h), K-562; type: cell-based, human; conditions: Homo sapiens, K562
Text: as §1, §2, §3

in vitro [16] = conditions: human; remark: listed apart in the source
sindbis virus = assay: Antiviral CPE reduction assay, Sindbis virus in Huh-7; type: cell-based; conditions: Huh-7 cells, 100 CCID50, MTS
[17] = system: human coronavirus HCoV-229E; assay: organism not typed; type: cell-based; conditions: HEL 299 cells, 100 CCID50, MTS; read-out: Antiviral Activity (EC50/μM) HCoV 229E HEL 299
[18] = system: Capan-1, pancreatic adenocarcinoma; assay: Proliferation assay (MTS, 72 h), Capan-1; type: cell-based, human; conditions: Homo sapiens, CAPAN-1
Text: as §1, §2, §3

E. coli efflux del = assay: microbe, parasite or virus in culture; type: cell-based; conditions: Table 2 prints no unit; μM for compounds; antibiotics tested at 0.125–64 µg/mL
Method: (§4) Selected bacterial strains were Gram-negative E. coli, K. pneumoniae, A. baumannii and P. aeruginosa and Gram-positive S. aureus, S. pneumoniae, and E. faecalis. The synthesized compounds were prepared as 10 mM DMSO solutions and tested in a final concentration range of 0.2–100 µM [39].
(§5) Broth microdilution testing was performed according to CLSI (Clinical Laboratory Standards Institute) guidelines. The MIC (minimal inhibitory concentration) value was defined as the last tested concentration of the compound at which there was no visible growth of bacteria. Inoculums for each microorganism were prepared using the direct colony suspension method, where broth solutions that achieved turbidity equivalent to 0.5 McFarland standard were additionally diluted 100× with Ca adjusted MH media (Becton Dickinson, Franklin Lakes, NJ, USA). All of the test plates were incubated for 16–24 h at 37 °C.
(§6) Methods for dilution of antimicrobial susceptibility tests for bacteria that grow aerobically followed M07, 11th edition, 2018, and Clinical and Laboratory Standards Institute (CLSI) guidelines. Performance standards for antimicrobial susceptibility testing followed the M100, 28th edition, 2018.

E. faecalis ATCC 29212 = assay: Broth microdilution MIC, E. faecalis; type: cell-based; conditions: Enterococcus faecalis, ATCC29212; read-out: MIC against E. faecalis
Method: as §4, §5, §6

CCN(CC)c1ccc(/C=N/c2nc3ccc(C#N)cc3n2C)c(O)c1 [Compound 36, (E)-2-((4-(Diethylamino)-2-hydroxybenzylidene)amino)-1-methyl-1H-benzo[d]imidazole-6-carbonitrile]
IC50 [1]: 41.4 µM
EC50 [2]: > 100 µM
EC50 (Zika virus (Mr776)): > 100 µM
EC50 [3]: > 100 µM
EC50 [4]: > 100 µM
IC50 (NCI-H460, lung carcinoma): > 100 µM
IC50 [5]: > 100 µM
EC50 [6]: > 100 µM
EC50 [7]: > 100 µM
EC50 [8]: > 100 µM
IC50 [9]: > 100 µM
IC50 [10]: > 100 µM
EC50 [11]: > 100 µM
EC50 [12]: > 100 µM
CC50 (in vitro [13]): > 100 µM
CC50 (in vitro [14]): > 100 µM
IC50 (LN-229, glioblastoma): > 100 µM
IC50 [15]: > 100 µM
CC50 (in vitro [16]): > 100 µM
EC50 (sindbis virus): > 100 µM
EC50 [17]: 88.4 µM
IC50 [18]: > 100 µM

C[C@@H](O)[C@H]1C(=O)N2C(C(=O)O)=C(S[C@@H]3CN[C@H](C(=O)N(C)C)C3)[C@H](C)[C@H]12 [Meropenem, meropenem, reference compound]
MIC E. coli efflux del (E. coli efflux del): 8

CN(C)c1ccc(/C=N/c2nc3ccccc3n2-c2ccccc2)cc1 [Compound 38, (E)-N,N-Dimethyl-4-(((1-phenyl-1H-benzo[d]imidazol-2-yl)imino)methyl)aniline]
IC50 [1]: > 100 µM
EC50 [2]: > 100 µM
EC50 (Zika virus (Mr776)): > 100 µM
EC50 [3]: > 100 µM
MIC E. coli efflux del (E. coli efflux del): >64
EC50 [4]: > 100 µM
IC50 (NCI-H460, lung carcinoma): > 100 µM
IC50 [5]: > 100 µM
EC50 [6]: > 100 µM
EC50 [7]: > 100 µM
EC50 [8]: > 100 µM
IC50 [9]: > 100 µM
IC50 [10]: > 100 µM
EC50 [11]: 94.8 µM
MIC (E. faecalis ATCC 29212): 32 µM (≈ 10.9 µg/mL)
EC50 [12]: > 100 µM
CC50 (in vitro [13]): > 100 µM
CC50 (in vitro [14]): > 100 µM
melting point: 204 to 207 °C
IC50 (LN-229, glioblastoma): > 100 µM
IC50 [15]: > 100 µM
CC50 (in vitro [16]): > 100 µM
EC50 (sindbis virus): > 100 µM
EC50 [17]: > 100 µM
IC50 [18]: > 100 µM

Cn1c(N)nc2ccc(C#N)cc21 [Compound 22, 2-amino-6-cyano-1-methylbenzimidazole]
EC50 [2]: > 100 µM
EC50 (Zika virus (Mr776)): 46.4 µM
EC50 [3]: > 100 µM
EC50 [4]: > 100 µM
EC50 [6]: 78.7 µM
EC50 [7]: > 100 µM
EC50 [8]: > 100 µM
EC50 [11]: > 100 µM
EC50 [12]: > 100 µM
CC50 (in vitro [13]): > 100 µM
CC50 (in vitro [14]): > 100 µM
CC50 (in vitro [16]): > 100 µM
EC50 (sindbis virus): > 100 µM
EC50 [17]: > 100 µM

CC(C)Cn1c(N)nc2ccccc21 [Compound 17, 2-amino-1-isobutylbenzimidazole]
EC50 [2]: > 100 µM
EC50 (Zika virus (Mr776)): > 100 µM
EC50 [3]: > 100 µM
EC50 [4]: > 100 µM
EC50 [6]: > 100 µM
EC50 [7]: > 100 µM
EC50 [8]: > 100 µM
EC50 [11]: > 100 µM
EC50 [12]: > 100 µM
CC50 (in vitro [13]): > 100 µM
CC50 (in vitro [14]): > 100 µM
CC50 (in vitro [16]): > 100 µM
EC50 (sindbis virus): > 100 µM
EC50 [17]: 78.9 µM
